Data: PubChem BioAssay AID248 (DTP/NCI, 2004)
Toxic doses and inconclusive results are not listed.

System: L1210 leukemia ip in BDF1 mice, survival T/C
Assay: NCI In Vivo Anticancer Drug Screen. Data for tumor model L1210 Leukemia (intraperitoneal) in B6D2F1 (BDF1) mice
Conditions: endpoint: mean survival time, higher = longer survival
In short: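 Read-out is survival time, reported as the treated-group measurement over the vehicle-control measurement.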

[1] = dose: 100.0 mg/kg/injection, schedule: Q01DX009 (ip), vehicle: Klucel (hydroxypropylcellulose) (HPC)
[2] = dose: 400.0 mg/kg/injection, schedule: Q01DX009 (ip), vehicle: Klucel (hydroxypropylcellulose) (HPC)

Compound: O=C(O)c1cc(Br)cc(I)c1I
- T/C (dose: 100.0 mg/kg/injection, schedule: Q04DX002 (ip), vehicle: saline with Tween-80): 105 % of control
- T/C (dose: 200.0 mg/kg/injection, schedule: Q04DX002 (ip), vehicle: saline with Tween-80): 105 % of control
- T/C (dose: 400.0 mg/kg/injection, schedule: Q04DX002 (ip), vehicle: saline with Tween-80): 110 % of control

Compound: CC(=O)c1ccc(NC(=O)N(CCCl)N=O)cc1
- T/C (dose: 2.0 mg/kg/injection, schedule: Q01DX001 (ip), vehicle: carboxymethylcellulose (CMC)): 122 % of control
- T/C (dose: 18.0 mg/kg/injection, schedule: Q01DX001 (ip), vehicle: carboxymethylcellulose (CMC)): 190 % of control
- T/C (dose: 25.0 mg/kg/injection, schedule: Q01DX001 (ip), vehicle: carboxymethylcellulose (CMC)): 152 % of control
- T/C (dose: 75.0 mg/kg/injection, schedule: Q01DX001 (ip), vehicle: carboxymethylcellulose (CMC)): 191 % of control
- T/C (dose: 150.0 mg/kg/injection, schedule: Q01DX001 (ip), vehicle: carboxymethylcellulose (CMC)): 160 % of control
- T/C (dose: 300.0 mg/kg/injection, schedule: Q01DX001 (ip), vehicle: carboxymethylcellulose (CMC)): 97 % of control

Compound: C=CCc1c(C)nc(N)[nH]c1=O
- T/C (dose: 100.0 mg/kg/injection, schedule: Q04DX003 (ip), vehicle: Klucel (hydroxypropylcellulose) (HPC)): 104 % of control
- T/C (dose: 200.0 mg/kg/injection, schedule: Q04DX003 (ip), vehicle: Klucel (hydroxypropylcellulose) (HPC)): 107 % of control
- T/C (dose: 400.0 mg/kg/injection, schedule: Q04DX003 (ip), vehicle: Klucel (hydroxypropylcellulose) (HPC)): 102 % of control

Compound: CC(=O)OCc1ccc(Cl)cc1
- T/C (dose: 100.0 mg/kg/injection, schedule: Q01DX009 (ip), vehicle: saline): 96 % of control
- T/C (dose: 200.0 mg/kg/injection, schedule: Q01DX009 (ip), vehicle: saline): 102 % of control

Compound: CC1CCCC(C)(C)C1NCc1cc(Br)cc(Br)c1O (stereo unspecified)
- T/C [1]: 107 % of control
- T/C [2]: 88 % of control

Compound: CC1OCOC2COCOC2C1O (stereo unspecified)
- T/C [1]: 92 % of control
- T/C (dose: 200.0 mg/kg/injection, schedule: Q01DX009 (ip), vehicle: Klucel (hydroxypropylcellulose) (HPC)): 94 % of control
- T/C [2]: 97 % of control

Compound: C1CSC2(CCC(C3CCC4(CC3)SCCS4)CC2)S1 (stereo unspecified)
- T/C (dose: 75.0 mg/kg/injection, schedule: Q01DX009 (ip), vehicle: saline): 92 % of control
- T/C (dose: 100.0 mg/kg/injection, schedule: Q01DX001 (ip), vehicle: saline): 88 % of control
- T/C (dose: 150.0 mg/kg/injection, schedule: Q01DX009 (ip), vehicle: saline): 97 % of control
- T/C (dose: 200.0 mg/kg/injection, schedule: Q01DX001 (ip), vehicle: saline): 91 % of control
- T/C (dose: 300.0 mg/kg/injection, schedule: Q01DX009 (ip), vehicle: saline): 87 % of control
- T/C (dose: 400.0 mg/kg/injection, schedule: Q01DX001 (ip), vehicle: saline): 93 % of control

Compound: CN=C(c1ccc(NC(=O)c2cc(N)cc(C(=O)Nc3ccc(C(=NC)N(C)C)cc3)c2)cc1)N(C)C
- T/C (dose: 0.9 mg/kg/injection, schedule: Q01DX Z (ip), vehicle: carboxymethylcellulose (CMC)): 94 % of control
- T/C (dose: 1.87 mg/kg/injection, schedule: Q01DX Z (ip), vehicle: carboxymethylcellulose (CMC)): 97 % of control
- T/C (dose: 3.75 mg/kg/injection, schedule: Q01DX Z (ip), vehicle: carboxymethylcellulose (CMC)): 91 % of control
- T/C (dose: 7.5 mg/kg/injection, schedule: Q01DX Z (ip), vehicle: carboxymethylcellulose (CMC)): 100 % of control
- T/C (dose: 15.0 mg/kg/injection, schedule: Q01DX Z (ip), vehicle: carboxymethylcellulose (CMC)): 100 % of control
- T/C (dose: 30.0 mg/kg/injection, schedule: Q01DX Z (ip), vehicle: carboxymethylcellulose (CMC)): 91 % of control
